# Measured values as given in patent publication US5294611A, “Angiotensin II receptor blocking 2,3,6 substituted quinazolinones” (American Cyanamid Company, priority 1993, dated 1994).
# Like-named read-outs stand apart in the source and are kept apart here.
# System: Angiotensin II (AII) vasopressor response
# Assay: AII Challenge: antagonism of angiotensin II vasopressor response in conscious spontaneously hypertensive rats
# Assay type: in vivo, rat (male okamoto-Aoki SHR)
# Conditions: for inhibition in vivo at 3 mg/kg: Rattus norvegicus, read-out: Inhibition; for Change: single SHR
# Outline: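 Conscious male SHR (16–20 weeks, ~330 g) cannulated under local procaine, blood pressure recorded via transducer. Angiotensin II (human) 0.05 and 0.1 ug/kg i.v. given before and after test compound dosed i.v., i.p. or orally; response measured as rise in systolic pressure (mmHg).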
# [1] = iv, 0.5 h, SHR n=2, 3 mg/kg I.V., AII 0.05 mcg/kg IV, 30 min post dose
# [2] = iv, 0.5 h, SHR n=2, 3 mg/kg I.V., AII 0.1 mcg/kg IV, 30 min post dose
# [3] = iv, 1 h, SHR n=2, 3 mg/kg I.V., AII 0.05 mcg/kg IV, 60 min post dose
# [4] = iv, 2 h, SHR n=2, 3 mg/kg I.V., AII 0.05 mcg/kg IV, 120 min post dose
# [5] = iv, 2 h, SHR n=2, 3 mg/kg I.V., AII 0.1 mcg/kg IV, 120 min post dose
# [6] = iv, 3 h, SHR n=2, 3 mg/kg I.V., AII 0.05 mcg/kg IV, 180 min post dose
# [7] = iv, 3 h, SHR n=2, 3 mg/kg I.V., AII 0.1 mcg/kg IV, 180 min post dose
# [8] = iv, […], SHR n=2, 3 mg/kg I.V., AII 0.05 mcg/kg IV, 90 min post dose
# [9] = iv, […], SHR n=2, 3 mg/kg I.V., AII 0.1 mcg/kg IV, 90 min post dose
# [10] = SHR n=2, 3 mg/kg I.V., AII 0.05 mcg/kg IV, 30 min post dose
# [11] = SHR n=2, 3 mg/kg I.V., AII 0.05 mcg/kg IV, 60 min post dose
# [12] = SHR n=2, 3 mg/kg I.V., AII 0.05 mcg/kg IV, 90 min post dose
# [13] = SHR n=2, 3 mg/kg I.V., AII 0.05 mcg/kg IV, 120 min post dose
# [14] = SHR n=2, 3 mg/kg I.V., AII 0.05 mcg/kg IV, 180 min post dose
# [15] = SHR n=2, 3 mg/kg I.V., AII 0.1 mcg/kg IV, 30 min post dose
# [16] = SHR n=2, 3 mg/kg I.V., AII 0.1 mcg/kg IV, 60 min post dose
# [17] = SHR n=2, 3 mg/kg I.V., AII 0.1 mcg/kg IV, 90 min post dose
# [18] = SHR n=2, 3 mg/kg I.V., AII 0.1 mcg/kg IV, 120 min post dose
# [19] = SHR n=2, 3 mg/kg I.V., AII 0.1 mcg/kg IV, 180 min post dose
smiles,measurement,setting,value
CCCCc1nc2ccc([C@H]3[C@@H]4C(=O)OC[C@@H]4ON3Cc3ccccc3)cc2c(=O)n1Cc1ccc(-c2ccccc2-c2nnn[nH]2)cc1 (relative stereo) [Example 57],inhibition in vivo at 3 mg/kg,[1],100%
same,inhibition in vivo at 3 mg/kg,[2],99%
same,inhibition in vivo at 3 mg/kg,[3],100%
same,inhibition in vivo at 3 mg/kg,"iv, 1 h, SHR n=2, 3 mg/kg I.V., AII 0.1 mcg/kg IV, 60 min post dose",88%
same,inhibition in vivo at 3 mg/kg,[4],90%
same,inhibition in vivo at 3 mg/kg,[5],81%
same,inhibition in vivo at 3 mg/kg,[6],61%
same,inhibition in vivo at 3 mg/kg,[7],75%
same,inhibition in vivo at 3 mg/kg,"iv, 4 h, SHR n=2, 3 mg/kg I.V., AII 0.05 mcg/kg IV, 240 min post dose",77%
same,inhibition in vivo at 3 mg/kg,"iv, 4 h, SHR n=2, 3 mg/kg I.V., AII 0.1 mcg/kg IV, 240 min post dose",56%
same,inhibition in vivo at 3 mg/kg,"iv, 5 h, SHR n=2, 3 mg/kg I.V., AII 0.05 mcg/kg IV, 300 min post dose",71%
same,inhibition in vivo at 3 mg/kg,"iv, 5 h, SHR n=2, 3 mg/kg I.V., AII 0.1 mcg/kg IV, 300 min post dose",38%
same,inhibition in vivo at 3 mg/kg,[8],93%
same,inhibition in vivo at 3 mg/kg,[9],75%
same,inhibition in vivo at 3 mg/kg,"po, 0.5 h, SHR n=2, 3 mg/kg P.O., AII 0.05 mcg/kg IV, 30 min post dose",34%
same,inhibition in vivo at 3 mg/kg,"po, 0.5 h, SHR n=2, 3 mg/kg P.O., AII 0.1 mcg/kg IV, 30 min post dose",37%
same,inhibition in vivo at 3 mg/kg,"po, 1 h, SHR n=2, 3 mg/kg P.O., AII 0.05 mcg/kg IV, 60 min post dose",67%
same,inhibition in vivo at 3 mg/kg,"po, 1 h, SHR n=2, 3 mg/kg P.O., AII 0.1 mcg/kg IV, 60 min post dose",53%
same,inhibition in vivo at 3 mg/kg,"po, 2 h, SHR n=2, 3 mg/kg P.O., AII 0.05 mcg/kg IV, 120 min post dose",41%
same,inhibition in vivo at 3 mg/kg,"po, 2 h, SHR n=2, 3 mg/kg P.O., AII 0.1 mcg/kg IV, 120 min post dose",63%
same,inhibition in vivo at 3 mg/kg,"po, 3 h, SHR n=2, 3 mg/kg P.O., AII 0.05 mcg/kg IV, 180 min post dose",11%
same,inhibition in vivo at 3 mg/kg,"po, 3 h, SHR n=2, 3 mg/kg P.O., AII 0.1 mcg/kg IV, 180 min post dose",53%
same,inhibition in vivo at 3 mg/kg,"po, […], SHR n=2, 3 mg/kg P.O., AII 0.05 mcg/kg IV, 90 min post dose",47%
same,inhibition in vivo at 3 mg/kg,"po, […], SHR n=2, 3 mg/kg P.O., AII 0.1 mcg/kg IV, 90 min post dose",47%
same,Average Change,[10],0 mmHg
same,Average Change,[11],0 mmHg
same,Average Change,[12],2.5 mmHg
same,Average Change,[13],3.5 mmHg
same,Average Change,[14],13.5 mmHg
same,Average Change,"SHR n=2, 3 mg/kg I.V., AII 0.05 mcg/kg IV, 240 min post dose",8 mmHg
same,Average Change,"SHR n=2, 3 mg/kg I.V., AII 0.05 mcg/kg IV, 300 min post dose",10 mmHg
same,Average Change,[15],0.5 mmHg
same,Average Change,[16],5 mmHg
same,Average Change,[17],10 mmHg
same,Average Change,[18],7.5 mmHg
same,Average Change,[19],10 mmHg
same,Average Change,"SHR n=2, 3 mg/kg I.V., AII 0.1 mcg/kg IV, 240 min post dose",17.5 mmHg
same,Average Change,"SHR n=2, 3 mg/kg I.V., AII 0.1 mcg/kg IV, 300 min post dose",25 mmHg
same,Average Change,"SHR n=2, 3 mg/kg P.O., AII 0.05 mcg/kg IV, 30 min post dose",25 mmHg
same,Average Change,"SHR n=2, 3 mg/kg P.O., AII 0.05 mcg/kg IV, 60 min post dose",12.5 mmHg
same,Average Change,"SHR n=2, 3 mg/kg P.O., AII 0.05 mcg/kg IV, 90 min post dose",20 mmHg
same,Average Change,"SHR n=2, 3 mg/kg P.O., AII 0.05 mcg/kg IV, 120 min post dose",22.5 mmHg
same,Average Change,"SHR n=2, 3 mg/kg P.O., AII 0.05 mcg/kg IV, 180 min post dose",34 mmHg
same,Average Change,"SHR n=2, 3 mg/kg P.O., AII 0.1 mcg/kg IV, 30 min post dose",30 mmHg
same,Average Change,"SHR n=2, 3 mg/kg P.O., AII 0.1 mcg/kg IV, 60 min post dose",22.5 mmHg
same,Average Change,"SHR n=2, 3 mg/kg P.O., AII 0.1 mcg/kg IV, 90 min post dose",25 mmHg
same,Average Change,"SHR n=2, 3 mg/kg P.O., AII 0.1 mcg/kg IV, 120 min post dose",17.5 mmHg
same,Average Change,"SHR n=2, 3 mg/kg P.O., AII 0.1 mcg/kg IV, 180 min post dose",22.5 mmHg
same,Change,"3 mg/kg I.V., AII 0.05 mcg/kg IV, 30 min post dose",0 mmHg
same,Change,"3 mg/kg I.V., AII 0.05 mcg/kg IV, 60 min post dose",0 mmHg
same,Change,"3 mg/kg I.V., AII 0.1 mcg/kg IV, 300 min post dose",25 mmHg
same,Change,"3 mg/kg P.O., AII 0.05 mcg/kg IV, 30 min post dose",25 mmHg
same,Change,"3 mg/kg P.O., AII 0.1 mcg/kg IV, 30 min post dose",30 mmHg
CCCCc1nc2ccc([C@H]3[C@@H]4C5CCC(C5)[C@@H]4ON3C)cc2c(=O)n1Cc1ccc(-c2ccccc2-c2nnn[nH]2)cc1 (some centres unmarked) [Example 51],inhibition in vivo at 3 mg/kg,[1],89%
same,inhibition in vivo at 3 mg/kg,[2],87%
same,inhibition in vivo at 3 mg/kg,[3],63%
same,inhibition in vivo at 3 mg/kg,"iv, 1 h",82%
same,inhibition in vivo at 3 mg/kg,[4],83%
same,inhibition in vivo at 3 mg/kg,[5],75%
same,inhibition in vivo at 3 mg/kg,[6],67%
same,inhibition in vivo at 3 mg/kg,[7],63%
same,inhibition in vivo at 3 mg/kg,[8],78%
same,inhibition in vivo at 3 mg/kg,[9],80%
same,Average Change,[10],5 mmHg
same,Average Change,[11],16.5 mmHg
same,Average Change,[12],10 mmHg
same,Average Change,[13],7.5 mmHg
same,Average Change,[14],15 mmHg
same,Average Change,[15],8 mmHg
same,Average Change,[16],11 mmHg
same,Average Change,[17],12.5 mmHg
same,Average Change,[18],15.5 mmHg
same,Average Change,[19],22.5 mmHg
same,Change,"3 mg/kg I.V., AII 0.05 mcg/kg IV, 180 min post dose",15 mmHg
